Experimental data as given in ChEMBL document CHEMBL5550160, “Leveraging a rationally designed veliparib-based anilide eliciting anti-leukemic effects for the design of pH-responsive polymer nanoformulation” (Eur J Med Chem, 2024).

Legend:
[1] = biological target: T1, Protein deacetylase HDAC6 (Homo sapiens) (UniProt Q9UBN7); test: Inhibition of HDAC6 (unknown origin) using p53 residues 379 to 382 [RHKK(Ac)] as fluorogenic substrate assessed as residual activity at 1.11 x 10^-6M (reference value: 101.06%); conditions: dose 1.1 10^-6M
T1 sequence (whole entry): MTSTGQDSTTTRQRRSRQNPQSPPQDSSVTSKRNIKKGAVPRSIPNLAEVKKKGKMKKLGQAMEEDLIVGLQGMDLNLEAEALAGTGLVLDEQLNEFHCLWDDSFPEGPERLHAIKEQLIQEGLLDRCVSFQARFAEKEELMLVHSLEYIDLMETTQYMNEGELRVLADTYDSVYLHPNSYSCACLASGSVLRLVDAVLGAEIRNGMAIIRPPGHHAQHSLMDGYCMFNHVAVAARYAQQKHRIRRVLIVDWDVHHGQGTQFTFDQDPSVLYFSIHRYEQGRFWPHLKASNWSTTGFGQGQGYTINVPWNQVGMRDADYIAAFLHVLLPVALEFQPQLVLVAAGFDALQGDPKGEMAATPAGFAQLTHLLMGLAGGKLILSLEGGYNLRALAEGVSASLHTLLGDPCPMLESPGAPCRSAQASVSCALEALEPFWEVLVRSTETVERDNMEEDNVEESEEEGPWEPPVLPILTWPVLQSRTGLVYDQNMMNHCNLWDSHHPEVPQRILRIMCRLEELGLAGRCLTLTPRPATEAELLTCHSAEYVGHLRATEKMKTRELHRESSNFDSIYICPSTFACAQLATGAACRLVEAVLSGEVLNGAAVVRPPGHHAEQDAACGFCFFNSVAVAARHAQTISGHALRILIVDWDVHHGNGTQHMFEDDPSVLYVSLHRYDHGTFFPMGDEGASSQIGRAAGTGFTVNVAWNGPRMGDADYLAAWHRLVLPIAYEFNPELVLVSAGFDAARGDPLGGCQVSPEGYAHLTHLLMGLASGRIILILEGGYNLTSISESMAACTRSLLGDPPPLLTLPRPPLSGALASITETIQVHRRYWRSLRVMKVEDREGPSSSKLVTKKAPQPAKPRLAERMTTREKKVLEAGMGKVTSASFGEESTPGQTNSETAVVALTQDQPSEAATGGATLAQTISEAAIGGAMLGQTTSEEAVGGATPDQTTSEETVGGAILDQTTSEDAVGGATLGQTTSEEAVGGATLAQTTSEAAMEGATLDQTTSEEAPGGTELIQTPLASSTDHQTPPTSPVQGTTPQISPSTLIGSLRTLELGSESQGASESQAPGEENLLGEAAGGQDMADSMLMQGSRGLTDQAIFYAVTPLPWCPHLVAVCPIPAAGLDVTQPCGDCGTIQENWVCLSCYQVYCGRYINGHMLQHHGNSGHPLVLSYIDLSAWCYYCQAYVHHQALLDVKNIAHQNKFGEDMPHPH

[2] = biological target: Histone deacetylase 5 (Homo sapiens) (UniProt Q9UQL6); test: Inhibition of HDAC5 (unknown origin) assessed as residual activity at 4.12 x 10^-8M (reference value: 100%); conditions: dose 4.12 10^-8M
Sequence of Histone deacetylase 5 (Homo sapiens) (Q9UQL6 whole entry, the tested form may be a part): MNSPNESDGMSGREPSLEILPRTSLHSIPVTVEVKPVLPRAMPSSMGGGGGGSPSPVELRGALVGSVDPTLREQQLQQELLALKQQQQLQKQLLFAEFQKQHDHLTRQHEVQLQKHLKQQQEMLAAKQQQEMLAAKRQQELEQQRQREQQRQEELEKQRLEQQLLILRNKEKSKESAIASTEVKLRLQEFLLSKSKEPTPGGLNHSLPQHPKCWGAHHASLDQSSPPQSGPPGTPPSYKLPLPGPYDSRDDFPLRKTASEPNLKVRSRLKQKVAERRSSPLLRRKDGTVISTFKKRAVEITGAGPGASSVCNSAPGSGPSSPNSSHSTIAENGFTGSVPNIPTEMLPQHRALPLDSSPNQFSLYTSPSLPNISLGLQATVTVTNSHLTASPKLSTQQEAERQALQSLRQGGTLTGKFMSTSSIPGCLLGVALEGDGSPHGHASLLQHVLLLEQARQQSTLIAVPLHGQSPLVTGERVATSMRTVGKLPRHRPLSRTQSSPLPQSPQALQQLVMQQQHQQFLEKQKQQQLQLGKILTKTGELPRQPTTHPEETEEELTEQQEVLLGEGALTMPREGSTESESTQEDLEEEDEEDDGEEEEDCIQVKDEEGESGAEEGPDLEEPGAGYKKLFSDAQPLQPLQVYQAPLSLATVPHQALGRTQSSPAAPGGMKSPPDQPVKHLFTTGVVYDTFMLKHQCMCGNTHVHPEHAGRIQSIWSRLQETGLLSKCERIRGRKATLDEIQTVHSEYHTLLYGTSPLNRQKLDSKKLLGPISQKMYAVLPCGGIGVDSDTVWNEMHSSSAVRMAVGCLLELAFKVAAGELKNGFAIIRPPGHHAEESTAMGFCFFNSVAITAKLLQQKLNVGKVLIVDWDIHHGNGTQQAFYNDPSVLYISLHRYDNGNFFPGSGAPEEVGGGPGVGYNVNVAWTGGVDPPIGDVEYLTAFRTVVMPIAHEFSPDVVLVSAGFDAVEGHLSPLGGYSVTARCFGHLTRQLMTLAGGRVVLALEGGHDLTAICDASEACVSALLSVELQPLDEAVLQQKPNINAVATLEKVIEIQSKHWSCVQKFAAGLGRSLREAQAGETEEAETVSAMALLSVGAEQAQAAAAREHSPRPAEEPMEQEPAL

[3] = biological target: Histone deacetylase 5 (Homo sapiens) (UniProt Q9UQL6); test: Inhibition of HDAC5 (unknown origin) assessed as residual activity at 3.33 x 10^-6M (reference value: 100%); conditions: dose 3.33 10^-6M
[4] = biological target: T1, Protein deacetylase HDAC6 (Homo sapiens); test: Inhibition of HDAC6 (unknown origin) using p53 residues 379 to 382 [RHKK(Ac)] as fluorogenic substrate assessed as residual activity at 1 x 10^-5M (reference value: 101.06%); conditions: dose 1.0 10^-5M
Histone deacetylase 2 = Histone deacetylase 2 (Homo sapiens, UniProt Q92769); test: Inhibition of HDAC2 (unknown origin) assessed as residual activity at 1.23 x 10^-7M (reference value: 99.81%); conditions: dose 1.23 10^-7M
Sequence of Histone deacetylase 2 (Q92769 whole entry): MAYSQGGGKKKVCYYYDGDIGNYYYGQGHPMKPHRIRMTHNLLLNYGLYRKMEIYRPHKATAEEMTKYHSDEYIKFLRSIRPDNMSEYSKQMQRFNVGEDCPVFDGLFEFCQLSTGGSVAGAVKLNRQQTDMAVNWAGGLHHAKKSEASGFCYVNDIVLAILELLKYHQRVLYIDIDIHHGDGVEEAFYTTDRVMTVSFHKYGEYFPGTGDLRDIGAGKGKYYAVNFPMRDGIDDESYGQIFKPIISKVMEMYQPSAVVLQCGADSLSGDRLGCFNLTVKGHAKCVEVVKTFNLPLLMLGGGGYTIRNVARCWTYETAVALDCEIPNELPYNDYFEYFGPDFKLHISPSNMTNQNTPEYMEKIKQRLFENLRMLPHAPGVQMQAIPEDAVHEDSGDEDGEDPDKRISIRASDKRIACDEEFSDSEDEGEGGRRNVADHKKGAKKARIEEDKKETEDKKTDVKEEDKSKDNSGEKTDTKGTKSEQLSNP

[5] = biological target: Histone deacetylase 5 (Homo sapiens) (UniProt Q9UQL6); test: Inhibition of HDAC5 (unknown origin) assessed as residual activity at 1 x 10^-5M (reference value: 100%); conditions: dose 1.0 10^-5M
Histone deacetylase 1 = Histone deacetylase 1 (Homo sapiens, UniProt Q13547); test: Inhibition of HDAC1 (unknown origin) using p53 residues 379 to 382 [RHKK(Ac)] as fluorogenic substrate assessed as residual activity at 4.12 x 10^-8M (reference value: 98.06%); conditions: dose 4.12 10^-8M
Sequence of Histone deacetylase 1 (Q13547 whole entry, the tested form may be a part): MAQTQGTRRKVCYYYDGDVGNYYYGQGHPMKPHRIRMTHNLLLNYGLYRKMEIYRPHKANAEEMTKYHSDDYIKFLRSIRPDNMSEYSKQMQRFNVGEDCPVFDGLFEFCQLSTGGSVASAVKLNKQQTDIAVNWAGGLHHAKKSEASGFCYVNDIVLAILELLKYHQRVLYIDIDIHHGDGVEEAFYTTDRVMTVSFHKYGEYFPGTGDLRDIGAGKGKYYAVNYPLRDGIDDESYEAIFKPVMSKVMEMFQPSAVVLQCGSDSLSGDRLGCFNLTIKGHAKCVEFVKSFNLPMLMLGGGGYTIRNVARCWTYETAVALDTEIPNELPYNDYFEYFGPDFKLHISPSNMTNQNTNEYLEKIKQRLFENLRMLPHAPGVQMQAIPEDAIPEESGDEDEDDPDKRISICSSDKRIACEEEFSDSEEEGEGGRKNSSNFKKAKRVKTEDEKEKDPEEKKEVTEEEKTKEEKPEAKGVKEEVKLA

[6] = biological target: T2, Histone deacetylase 7 (Homo sapiens) (UniProt Q8WUI4); test: Inhibition of HDAC7 (unknown origin) assessed as residual activity at 1 x 10^-5M (reference value: 102.66%)
T2 sequence (whole entry): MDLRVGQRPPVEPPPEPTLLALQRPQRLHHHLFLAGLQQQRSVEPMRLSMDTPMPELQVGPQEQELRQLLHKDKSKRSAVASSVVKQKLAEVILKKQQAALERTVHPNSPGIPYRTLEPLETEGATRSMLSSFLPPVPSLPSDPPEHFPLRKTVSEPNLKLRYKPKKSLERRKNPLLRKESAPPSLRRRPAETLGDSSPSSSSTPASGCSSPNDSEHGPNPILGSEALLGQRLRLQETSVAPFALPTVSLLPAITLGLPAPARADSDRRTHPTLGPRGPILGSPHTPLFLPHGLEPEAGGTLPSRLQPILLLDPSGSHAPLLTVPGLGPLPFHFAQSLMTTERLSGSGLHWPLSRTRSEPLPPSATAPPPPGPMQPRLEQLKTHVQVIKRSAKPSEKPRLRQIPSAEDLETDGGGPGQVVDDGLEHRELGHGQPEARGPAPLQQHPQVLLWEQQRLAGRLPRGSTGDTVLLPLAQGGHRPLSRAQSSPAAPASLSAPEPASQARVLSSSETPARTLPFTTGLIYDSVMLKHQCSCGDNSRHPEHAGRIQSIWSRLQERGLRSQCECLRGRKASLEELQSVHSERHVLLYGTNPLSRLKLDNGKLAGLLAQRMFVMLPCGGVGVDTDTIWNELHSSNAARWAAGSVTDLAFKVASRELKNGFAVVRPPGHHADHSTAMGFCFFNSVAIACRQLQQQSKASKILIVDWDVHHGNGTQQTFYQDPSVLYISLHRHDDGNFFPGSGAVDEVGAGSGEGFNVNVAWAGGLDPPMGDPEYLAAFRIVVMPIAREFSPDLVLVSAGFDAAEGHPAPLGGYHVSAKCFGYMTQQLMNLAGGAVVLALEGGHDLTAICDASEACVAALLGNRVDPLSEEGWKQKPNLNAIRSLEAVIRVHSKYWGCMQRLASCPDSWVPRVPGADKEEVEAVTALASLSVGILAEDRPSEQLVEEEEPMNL

Activity [1]: 79.8%
Activity [2]: 93.1%
Activity [3]: 85.7%
Activity [4]: 107%
Activity (Histone deacetylase 2): 56.5%
Activity [5]: 111%
Activity (Histone deacetylase 1): 51.3%
Activity [6]: 92%
SMILES: NC(=O)c1cccc2[nH]c(-c3ccc(NCc4ccc(C(=O)Nc5ccccc5N)cc4)cc3)nc12
